According to patent US6906059B2, “Pharmaceutical composition with protective action against oxidative/toxic substances, especially cardiotoxic substances” (Solvay Pharmaceuticals, priority 1999, dated 2005):

Legend:
[1] = system: rats with adriamycin-induced cardiomyopathy; experiment: Inhibition of the pro-oxidative action of adriamycin in rats (plasma α-tocopherol, lipid peroxides, ferroxidase activity); type: in vivo, male Wistar rats; details: for Lipid peroxides (measured as malonic dialdehyde thiobarbituric acid adducts) in plasma / α-Tocopherol (Vitamin E) in plasma / Ferroxidase activity in plasma: X ± SEM
Method: The left-ventricular myocardial hydroxyproline concentration, which is a measurement of cardiac fibrous tissue growth, was less in the animals treated with test substance (group 3) than in the control animals treated with adriamycin (group 2). […] If the test substance was also administered in addition to adriamycin (group 3), the adriamycin-induced increase in the hydroxyproline content could be reduced by about 13% compared with animals treated with placebo (group 2). […] The animals were divided into 4 groups:
1. untreated animals (=control animals, n=19);
2. animals treated with adriamycin (+placebo instead of test substance, n=14);
3. animals treated with test substance (n=11);
4. animals treated with adriamycin and test substance (n=14).
(§1) The test substance used was (3S,2R′)-3-{1-[2′-(ethoxycarbonyl)-4′-phenyl-butyl]-cyclopentane-1-carbonylamino}-2,3,4,5-tetrahydro-2-oxo-1H-1-benzazepin-1-acetic acid, being representative of the substances of Formula I usable according to the invention.
The animals of groups 2 and 4 were administered 15 mg/kg adriamycin intraperitoneally over a period of two weeks. The animals of group 4 were administered 30 mg/kg of the test substance daily for two weeks with their food, starting with the first day of adriamycin treatment. The animals of group 3 were likewise administered 30 mg/kg of the test substance daily for two weeks with their food (but without adriamycin).
Once the two-weeks' treatment had ended, the animals were anaesthetised with pentobarbital (50 mg/kg i.p.) and venous blood samples were taken, from which plasma was obtained. The concentration of lipid-peroxides and the ferroxidase activity in the plasma was measured using the methods of Wong, S. H. Y. et al., Clin. Chem. 33, 214-220, 1987 or Johnson, D. A. et al., Clin. Chem. 13, 142-150, 1967. Furthermore, the α-tocopherol concentration in the plasma was measured using the method of Catignani, G. L. and Bieri, J. G., Clin. Chem. 29, 708-712, 1983.

[2] = system: rabbits with adriamycin-induced cardiomyopathy; experiment: Reduction of adriamycin-induced cardiac remodelling processes in the rabbit heart (heart/body weight ratio, hydroxyproline content); type: in vivo; details: for Ratio of heart weights to body weight: X ± SEM, n = 8
Method: • A) The tests were carried out on rabbits of both sexes having an initial body weight of 2.1±0.2 kg. The animals were divided into 3 groups:
1. untreated animals (=control animals, n=20);
2. animals treated with adriamycin (+placebo instead of test substance, n=8);
as §1, with “3. animals treated with adriamycin and test substance (n=8). • The” for “The”, “which is” for “being”
Groups 2 and 3 were administered 1 mg/kg adriamycin i.v. twice a week for 4 weeks. Group 3 of rabbits having adriamycin-induced cardiomyopathy was administered a daily oral dose of the test substance (30 mg/kg body weight) for 4 weeks, starting on the first day of adriamycin treatment, with their food. Once the 4 weeks had ended, the hearts were isolated and weighed. Then they were fixed with formalin for later biochemical investigations (hydroxyproline content of the heart tissue, measured with the HPLC amino acid analysis after Blankenship, D. T. et al., Aunal. Biochem. 178, 227-232, 1989 and Schuster, R., J. Chromatogr. 431, 271 -284, 1989). Both the increase in heart weight in relation to body weight and the hydroxyproline content in the heart tissue compared with normal values are indicators of remodelling processes taking place in the heart.

[3] = Group 2: adriamycin 15 mg/kg i.p. over two weeks + placebo, n = 14
[4] = group 2 (adriamycin) v. group 1 (control)
[5] = group 2 (adriamycin) v. group 1 (untreated)
[6] = Group 3: test substance 30 mg/kg daily with food for two weeks, no adriamycin, n = 11
[7] = Group 4: adriamycin 15 mg/kg i.p. + test substance 30 mg/kg daily, two weeks, n = 14
[8] = adriamycin + test substance v. adriamycin + placebo
[9] = group 4 v. group 2 (adriamycin + placebo)
[10] = test substance alone v. untreated
[11] = adriamycin + test substance 30 mg/kg daily oral v. adriamycin + placebo, 4 weeks

For COc1cccc2c1C(=O)c1c(O)c3c(c(O)c1C2=O)C[C@@](O)(C(=O)CO)C[C@@H]3O[C@H]1C[C@H](N)[C@H](O)[C@H](C)O1 [adriamycin, reference compound], the “Lipid peroxides (measured as malonic dialdehyde thiobarbituric acid adducts) in plasma” value (“Lipid peroxides … in plasma” below) [1, 3] was 4.476 ± 0.404 µmol/L, the “α-Tocopherol (Vitamin E) in plasma” value [1, 3] was 338.2 ± 28.0 µg/dL and the “Increase of concentration of lipid peroxides in the rat plasma” value [1, 4] was “about 131%”. For the same molecule, the “Increase of total activity of the ferroxidase in the rat plasma” value [1, 4] was “about 22%”, the Ratio of heart weights to body weight ([2]; Group 2: adriamycin 1 mg/kg i.v. twice a week for 4 weeks + placebo) was 3.39 ± 0.13 g/kg and the “Increase of heart/body weight ratio compared with untreated control group” value [2, 5] was “about 69%”. The “Increase of myocardial hydroxyproline content compared with untreated control group” value [2, 5] was “about 60%”.

For CCOC(=O)[C@H](CCc1ccccc1)CC1(C(=O)N[C@H]2CCc3ccccc3N(CC(=O)O)C2=O)CCCC1 [test substance, (3S,2R′)-3-{1-[2′-(ethoxycarbonyl)-4′-phenyl-butyl]-cyclopentane-1-carbonylamino}-2,3,4,5-tetrahydro-2-oxo-1H-1-benzazepin-1-acetic acid], the “Ferroxidase activity in plasma” value [1, 6] was 0.2545 ± 0.0104 IU/l, the “Lipid peroxides … in plasma” value [1, 6] was 2.319 ± 0.086 µmol/L and the “α-Tocopherol (Vitamin E) in plasma” value [1, 6] was 657.8 ± 21.0 µg/dL. The “Ferroxidase activity in plasma” value [1, 7] was 0.2534 ± 0.0128^+ IU/l, the “Lipid peroxides … in plasma” value [1, 7] was 3.030 ± 0.235^+++ μmol/l and the “α-Tocopherol (Vitamin E) in plasma” value [1, 7] was 407.9 ± 33.0 µg/dL. For the same molecule, the “% Effect of the test substance on plasma ferroxidase activity, Group 4 v. 2” value [1, 8] was −23.0%, the “% Effect of the test substance on plasma lipid peroxides, Group 4 v. 2” value [1, 8] was −32.3% and the “% Effect of the test substance on plasma α-tocopherol, Group 4 v. 2” value [1, 8] was “+20.6%”. For the same molecule, the “Increase of α-tocopherol content in the plasma” value ([1]; group 3 (test substance) v. group 1 (control)) was “about 95%”, the “Increase of α-tocopherol content in the plasma” value ([1]; group 4 (adriamycin + test substance) v. group 2 (adriamycin + placebo)) was “about 21%” and the “Decrease of ferroxidase activity” value [1, 9] was 23%. For the same molecule, the “Reduction of the adriamycin-induced increase in the concentration of lipid peroxides in the plasma” value [1, 9] was “about 32%”, the “% Effect of the test substance on plasma ferroxidase activity, Group 3 v. 1” value [1, 10] was −5.7% and the “% Effect of the test substance on plasma lipid peroxides, Group 3 v. 1” value [1, 10] was “+19.6%”. For the same molecule, the “% Effect of the test substance on plasma α-tocopherol, Group 3 v. 1” value [1, 10] was “+95.2%”, the Ratio of heart weights to body weight ([2]; Group 3: adriamycin 1 mg/kg i.v. twice a week + test substance 30 mg/kg daily oral, 4 weeks) was 2.79 ± 0.08 g/kg and the “% Effect of the test substance (group 3 v. 2) on hydroxyproline content of the heart” value [2, 11] was −13.3%. The “% Effect of the test substance (group 3 v. 2) on ratio of heart weights to body weight” value [2, 11] was −17.7%, the “Reduction of the adriamycin-induced increase in the heart/body weight ratio” value ([2]; group 3 v. group 2 (placebo)) was “about 18%” and the “Reduction of the adriamycin-induced increase in the hydroxyproline content” value ([2]; group 3 v. group 2 (placebo)) was “about 13%”.
